Like-named read-outs stand apart in the source and are kept apart here.
Columns and labels:
[1] = target: α-amylase; parameters: method as in ref 14 (Lim et al. 2022); details: ref 14 (Lim et al. 2022); cited from earlier work
[2] = target: α-glucosidase; parameters: method as in ref 14 (Lim et al. 2022); details: ref 14 (Lim et al. 2022); cited from earlier work
[3] = target: T1, α-glucosidase (Saccharomyces cerevisiae, UniProt P53341); assay: Fluorescence quenching experiment (Stern-Volmer); format: binding; details: for Kd: Ka (binding constant); for Kq (bimolecular quenching constant): given as number×10 with exponent 12
T1 construct: purchased Sigma-Aldrich Co. (St. Louis, MI, USA)
Description: The fluorescence quenching experiment was modified somewhat based on previous studies. Fluorescence was determined by titrating α-glucosidase (1.0 mL, 2 U/mL) with different concentrations of inhibited solutions (1.0 mL, 0–200 mM) and left to equilibrate for 5 min. […] Fluorescence burst analysis was performed based on the Stern-Volmer (3) equation.(3) F0/F=1+Kqτ0Q=1+KsvQ
F and F0 are the fluorescence intensities with and without inhibitor, respectively, Ksv is the Stern-Volmer bursting constant, Kq is the bimolecular bursting constant, and [Q] is the concentration of inhibitor.
When the bursting mode conforms to static bursting, the binding constant Ka and the number of binding sites for each enzyme can be calculated from Equation (4).(4) logF0−F/F=logKa+nlogQ
Ka is the binding constant and n is the number of binding sites.
The thermodynamic parameters ∆H, ∆S, and ∆G denote the change in heat, entropy, and free energy, respectively.

[4] = target: T1, α-glucosidase; assay: biochemical; format: biochemical
Description: To further investigate the inhibition kinetics of the candidate compounds, α-glucosidase activity was determined at different substrate concentrations. The Lineweaver-Burk expression method in Equation (1) was used to test the reaction of a series of compounds with the substrate pNαGP, and the values of maximum velocity (Vmax) and Michaelis-Menten constant (Km) were calculated.(1) 1/v=Km/Vmax1/[S]+1/Vmax where Vmax and Km are the maximum velocity of the enzyme and the Michaelis-Menten constant in the absence of inhibitor, respectively. [S] is the concentration of substrate and inhibitor.(2) Slope=Km/Vmax+Km/Vmax·KiI where v is the initial reaction rate, Vmax is the maximum initial reaction rate, [I] is the concentration of […], and Km is the Michaelis-Menten constant.

[5] = target: T2, α-amylase (Sus scrofa, UniProt P00690); assay: In vitro α-amylase activity assay (G3-CNP, absorbance 405 nm); format: biochemical, porcine; parameters: inhibition of α-amylase: dose or concentration left out as unconfirmed
T2 construct: α-amylase isolated from porcine pancreas; purchased Sigma-Aldrich Co. (St. Louis, MI, USA); host or cells: porcine pancreas
T2 sequence (P00690 16-511): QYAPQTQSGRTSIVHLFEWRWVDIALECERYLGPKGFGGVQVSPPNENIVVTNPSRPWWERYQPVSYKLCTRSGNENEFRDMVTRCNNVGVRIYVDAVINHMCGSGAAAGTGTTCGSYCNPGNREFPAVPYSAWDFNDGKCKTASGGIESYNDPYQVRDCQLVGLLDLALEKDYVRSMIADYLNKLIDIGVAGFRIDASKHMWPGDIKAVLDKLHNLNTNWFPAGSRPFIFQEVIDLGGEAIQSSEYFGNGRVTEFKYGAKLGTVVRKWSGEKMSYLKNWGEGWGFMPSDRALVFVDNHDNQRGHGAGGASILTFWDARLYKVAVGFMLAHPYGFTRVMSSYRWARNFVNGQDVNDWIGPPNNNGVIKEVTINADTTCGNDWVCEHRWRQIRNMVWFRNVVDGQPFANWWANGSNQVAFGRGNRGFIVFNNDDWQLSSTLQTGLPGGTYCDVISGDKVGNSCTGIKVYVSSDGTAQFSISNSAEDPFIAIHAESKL
Description: (§1) The inhibitors used in this study were purchased from the ChemDiv website. Unless otherwise stated, all other reagents used in this experiment were analytically pure reagents purchased from Sigma-Aldrich Co. (St. Louis, MI, USA).
The in vitro α-amylase activity assay was determined spectrophotometrically as previously described with only minor modifications. A phosphate-buffer solution at pH 6.8 was configured to obtain α-amylase 5 U/mL and 2-chloro-4-nitrophenyl α-D-maltotrioside (G3-CNP) 0.6 mM. […] Gradient dilution with phosphate-buffer solution was performed to obtain sample solutions of different concentrations.
(§2) The IC50 values of the tested compounds were calculated using nonlinear fitting (logit method).

[6] = target: T1, α-glucosidase; assay: Synchronous fluorescence spectroscopy (RSQF); format: binding
Description: Changes in the microenvironment of tyrosine (Tyr) and tryptophan (Trp) residue fluorophores were detected simultaneously. The excitation and emission wavelength intervals were set to 15 nm and 60 nm, respectively, and the synchronized fluorescence spectra from 260 to 320 nm were determined. The synchronized fluorescence burst ratio (RSFQ) was calculated as follows:(7) RSQF=1−F/F0

[7] = target: T1, α-glucosidase; assay: In vitro α-glucosidase activity assay (pNαGP, absorbance 405 nm); format: biochemical
Description: as §1
The in vitro α-glucosidase activity assay was determined spectrophotometrically as previously described with only minor modifications. A phosphate-buffer solution at pH 6.8 was configured to obtain 0.5 U/mL of α-glucosidase and 0.6 mM of […] (pNαGP). […] Gradient dilution with phosphate-buffer solution was performed to obtain sample solutions of different concentrations. First, different concentrations of compounds (10 µL), enzyme solution (40 µL) and potassium phosphate buffer (100 µL) were pre-incubated in a 96-well plate for 10 min at 37 °C. Then, 50 µL of substrate (pNαGP, 0.6 mM) was added to each microtiter well and incubated for 20 min at 37 °C, and the absorbance at 405 nm was measured to detect the change in enzyme activity.
The enzyme inhibitory activity of the tested compounds was calculated as follows: α−glucosidase inhibition rate%=Abs control−Abs sample/Abs control×100
as §2

[8] = target: α-amylase; parameters: method as in ref 15 (Sun et al. 2017); details: ref 15 (Sun et al. 2017); cited from earlier work
[9] = target: α-glucosidase; parameters: method as in ref 15 (Sun et al. 2017); details: ref 15 (Sun et al. 2017); cited from earlier work

T1 sequence (P53341 whole entry): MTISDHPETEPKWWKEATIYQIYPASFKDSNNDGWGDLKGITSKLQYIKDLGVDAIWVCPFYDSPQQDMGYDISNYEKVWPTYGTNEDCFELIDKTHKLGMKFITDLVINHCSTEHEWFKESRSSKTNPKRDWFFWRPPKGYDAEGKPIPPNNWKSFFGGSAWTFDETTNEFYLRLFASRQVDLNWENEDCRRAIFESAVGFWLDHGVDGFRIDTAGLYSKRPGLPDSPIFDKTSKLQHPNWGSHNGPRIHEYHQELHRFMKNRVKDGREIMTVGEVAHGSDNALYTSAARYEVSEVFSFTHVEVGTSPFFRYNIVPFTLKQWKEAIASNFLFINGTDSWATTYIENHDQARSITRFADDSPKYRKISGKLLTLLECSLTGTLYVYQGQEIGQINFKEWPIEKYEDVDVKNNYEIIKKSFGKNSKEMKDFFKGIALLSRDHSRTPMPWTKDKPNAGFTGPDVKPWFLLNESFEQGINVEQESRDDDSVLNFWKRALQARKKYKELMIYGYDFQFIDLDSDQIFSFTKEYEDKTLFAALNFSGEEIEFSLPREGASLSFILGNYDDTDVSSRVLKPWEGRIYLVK

For `O=c1c(O)c(-c2ccc(O)c(O)c2)oc2ccccc12` [3′,4′-dihydroxyflavonol], the IC50 [1] is listed as 119 µM and the IC50 [2] is listed as 34.3 µM.

`O=[N+]([O-])c1ccccc1C1Oc2ccccc2C2CC(c3ccccc3)=NN21` (stereo not drawn) [K411] gave a Kd ([3]; T 300.15 K) of 1.98 µM, a Kd ([3]; T 305.15 K) of 2.07 µM and a Kd ([3]; T 310.15 K) of 3.91 µM. For the same compound, the “Ksv (quenching constant)” value ([3]; T 300.15 K) was 10.50 ±0.01 104 /M, the “n (number of binding sites)” value ([3]; T 300.15 K) was 1.15 and the “Ksv (quenching constant)” value ([3]; T 305.15 K) was 7.67 ±0.01 104 /M. The “n (number of binding sites)” value ([3]; T 305.15 K) was 1.17, the “Kq (bimolecular quenching constant)” value ([3]; T 305.15 K) was 7.67 ×10^12 (M·S)-1 and the “Ksv (quenching constant)” value ([3]; T 310.15 K) was 5.51 ±0.01 104 /M. The “n (number of binding sites)” value ([3]; T 310.15 K) was 1.15, the “Kq (bimolecular quenching constant)” value ([3]; T 310.15 K) was 5.51 ×10^12 (M·S)-1 and the Ki [4] was 61.3 ± 14.4 µM. For the same compound, the Type of inhibition [4] was “Competitive”, the Vmax ([4]; [I] 7.5 μM) was 8.94±0.06 ×10-1µM/min and the Vmax ([4]; [I] 15 μM) was 8.85±0.02 ×10-1µM/min. For the same compound, the Vmax ([4]; [I] 30 μM) was 8.62±0.04 ×10-1µM/min, the Vmax ([4]; [I] 50 μM) was 8.81±0.03 ×10-1µM/min and the Vmax ([4]; [I] 70 μM) was 8.43±0.04 ×10-1µM/min. The IC50 [5] was over 500 µM, the “inhibition of α-amylase” value ([5]; […] µM) was “minimal inhibition” and the “RSQF values, Trp (Δλ = 60 nm) versus Tyr (Δλ = 15 nm)” value [6] was “significantly higher”. For the same compound, the IC50 [7] was 67.8 ± 2.18 µM and the inhibition at 250 µM ([7]; read-out: inhibition of α-glucosidase) was about 100%.

In the case of `O=C(/C=C/c1ccc(O)cc1)c1c(O)cc(O)cc1O` [chalconaringenin], the IC50 [8] is given as over 100 µM and the IC50 [9] is given as 20 µM.
